Results: the NIST ThermoML archive (doi:10.1016/j.fluid.2011.01.007)

Legend:
[1] = 298.15 K; 101.33 kPa; Liquid; Vibrating tube method
[2] = refractive index (Na D-line) (dimensionless); conditions: 298.15 K; 101.33 kPa; Liquid; Standard Abbe refractometry
[3] = xn = mol fraction of the nth substance listed; conditions: 298.15 K, 101 kPa, Liquid, Vibrating tube method
[4] = refractive index (Na D-line) (dimensionless); xn = mol fraction of the nth substance listed; conditions: 298.15 K, 101 kPa, Liquid, Standard Abbe refractometry

Cc1ccccc1 [toluene]
Conditions | mass density [kg/m3] | refractive index
[1] | 862.19 | –
[2] | – | 1.49397

COC(=O)OC [dimethyl carbonate] + c1ccccc1
Conditions | mass density, [3] [kg/m3] | refractive index, [4]
x1 = 0.0518 | 882.09 | 1.4902
x1 = 0.0988 | 889.99 | 1.4836
x1 = 0.1995 | 907.42 | 1.4699
x1 = 0.2994 | 925.15 | 1.4565
x1 = 0.401 | 943.6 | 1.4431
x1 = 0.5002 | 962.07 | 1.4301
x1 = 0.6003 | 981.15 | 1.417
x1 = 0.699 | 1000.51 | 1.4044
x1 = 0.7981 | 1020.48 | 1.3918
x1 = 0.9 | 1041.49 | 1.3789
x1 = 0.9497 | 1052 | 1.3727

COC(=O)OC [dimethyl carbonate]
Conditions | mass density [kg/m3] | refractive index
[1] | 1063.04 | –
[2] | – | 1.36654

c1ccccc1 [benzene]
Conditions | mass density [kg/m3] | refractive index
[1] | 873.57 | –
[2] | – | 1.49764

COC(=O)OC [dimethyl carbonate] + Cc1ccccc1
Conditions | mass density, [3] [kg/m3] | refractive index, [4]
x1 = 0.0496 | 869.6 | 1.4883
x1 = 0.0998 | 877.39 | 1.4827
x1 = 0.2001 | 893.69 | 1.4715
x1 = 0.3003 | 910.85 | 1.4597
x1 = 0.3998 | 928.88 | 1.4475
x1 = 0.5002 | 948 | 1.4352
x1 = 0.5999 | 968.16 | 1.4224
x1 = 0.6999 | 989.62 | 1.4091
x1 = 0.7998 | 1012.35 | 1.3954
x1 = 0.8988 | 1036.61 | 1.3814
x1 = 0.9487 | 1049.29 | 1.3741

CCO [ethanol]
Conditions | mass density [kg/m3] | refractive index
[1] | 785.33 | –
[2] | – | 1.35928
